A word on the viability: it is a read-out of living cells in per cent, often relative to untreated cells.

In one assay the test system is hepatocellular carcinoma cell line Hep3B. Briefly: Growth inhibition of Hep3B cells, 48 hr treatment, Hoechst 33342 nucleus count (GE InCell 2200). The following applies: Homo sapiens, Table 1, ratio of number of tumor cells treated with 10 μM compound to non-treated cells. The format is cell-based. On the procedure: The potency of selected compounds was defined by the growth inhibition ability to the hepatocellular carcinoma cell line Hep3B. The Hep3B cells were treated with selected compounds for 48 hr under 37° C., 5% CO2, and 95% relative humidity.
The number of treated cells was determined by GE InCell 2200 system, and treated cells were stained with Hoechst 33342 which can reveal the remained nucleus in culture plate. The proportion of survival cells then were calculated with the ratio of treated/non-treated cells. The growth inhibition/cytotoxic effect of selected compounds were evaluated by the following protocol of NCI-60 screening platform. The human tumor cell lines are plating on a 96 well plate in a fixed density 24 hr prior compound treatment. Compounds with multiple concentrations are then added into each well for further 48 hr incubation. Cell viability is assessed by MTS method and the potency of compound is represented by GI50 and LC50 calculated by MTS result.
Herein, the “Ratio in 10 μM (%)” in the following Tables 1-6 refers to the ratio of the number of tumor cells treated with 10 μM of selected compounds to the number of non-treated tumer cells.
Regarding `Nc1nc2ccc(CC(=O)Nc3nnc(-c4ccc(I)cc4)s3)cc2s1` [Compound 1-12, 2-(2-aminobenzo[d]thiazol-6-yl)-N-(5-(4-iodophenyl)-1,3,4-thiadiazol-2-yl)acetamide], the viability at 10 µM is 67%.

The assay is the same for the next values; noted with them: Homo sapiens, Table 2, ratio of number of tumor cells treated with 10 μM compound to non-treated cells.
In the case of `Nc1nc2ccc(CC(=O)Nc3nnc(-c4ccccc4OC(F)(F)F)o3)cc2s1` [Compound 2-4, 2-(2-aminobenzo[d]thiazol-6-yl)-N-(5-(2-(trifluoromethoxy)phenyl)-1,3,4-oxadiazol-2-yl)acetamide], the viability at 10 µM worked out at 88%.

Still in this assay, the particulars now being: Homo sapiens, Table 3, ratio of number of tumor cells treated with 10 μM compound to non-treated cells.
For `CCOc1ccc(-c2cnc(NC(=O)Cc3ccc4nc(N)sc4c3)s2)cc1` [Compound 3-11, 2-(2-aminobenzo[d]thiazol-6-yl)-N-(5-(4-ethoxyphenyl)thiazol-2-yl)acetamide], the viability at 10 µM worked out at 60%.
Turning to `CCCOc1ccc(-c2nc(NC(=O)Cc3ccc4nc(N)sc4c3)sc2-c2ccc(F)cc2)cc1` [Compound 3-6, 2-(2-aminobenzo[d]thiazol-6-yl)-N-(5-(4-fluorophenyl)-4-(4-propoxyphenyl)thiazol-2-yl)acetamide], the viability at 10 µM turned out to be 83%.
The same measure, in the same setting: under `Cc1ccc(-c2nc(NC(=O)Cc3ccc4nc(N)sc4c3)sc2-c2cc(C(F)(F)F)cc(C(F)(F)F)c2)cc1` [Compound 3-7, 2-(2-aminobenzo[d]thiazol-6-yl)-N-(5-(3,5-bis(trifluoromethyl)phenyl)-4-(p-tolyl)thiazol-2-yl)acetamide] stands 78%; under `CCOc1ccc(-c2nc(NC(=O)Cc3ccc4nc(N)sc4c3)sc2Cc2ccccc2)cc1` [Compound 3-14, 2-(2-aminobenzo[d]thiazol-6-yl)-N-(5-benzyl-4-(4-ethoxyphenyl)thiazol-2-yl)acetamide], 76%.

The same assay, now with this note: Homo sapiens, Table 4, ratio of number of tumor cells treated with 10 μM compound to non-treated cells.
Turning to `CCOc1ccc(-c2cnc(NC(=O)Cc3ccc4nc(N)sc4c3)[nH]2)c(OCCOC)c1` [Compound 4-3, 2-(2-aminobenzo[d]thiazol-6-yl)-N-(5-(4-ethoxy-2-(2-methoxyethoxy)phenyl)-1H-imidazol-2-yl)acetamide], the viability at 10 µM worked out at 40%.
Still for that read-out and setting: then `CCOc1ccc(-c2ccc(NC(=O)Cc3ccc4nc(N)sc4c3)s2)cc1` [Compound 4-2, 2-(2-aminobenzo[d]thiazol-6-yl)-N-(5-(4-ethoxyphenyl)thiophen-2-yl)acetamide], with 89%.

The same assay, now with this note: Homo sapiens, Table 5, ratio of number of tumor cells treated with 10 μM compound to non-treated cells.
Consider `CCCOc1ccc(-c2nc(NC(=O)c3ccc([N+](=O)[O-])s3)sc2Oc2ccc(F)cc2Cl)cc1` [Compound 5-45, N-(5-(2-chloro-4-fluorophenoxy)-4-(4-propoxyphenyl)thiazol-2-yl)-5-nitrothiophene-2-carboxamide], for which the viability at 10 µM came to 28%.
Same read-out and setting: then `O=C(Nc1nc(-c2ccc(Br)s2)c(Oc2ccccc2)s1)c1ccc([N+](=O)[O-])s1` [Compound 5-42, N-(4-(5-bromothiophen-2-yl)-5-phenoxythiazol-2-yl)-5-nitrothiophene-2-carboxamide], with 55%; and `CCCCc1ccc(Oc2sc(NC(=O)c3ccc([N+](=O)[O-])s3)nc2-c2ccc(F)cc2)cc1` [Compound 5-65, N-(5-(4-butylphenoxy)-4-(4-fluorophenyl)thiazol-2-yl)-5-nitrothiophene-2-carboxamide], with 43%.
Still for that read-out and setting: then `CCOc1ccc(-c2nc(NC(=O)c3ccc([N+](=O)[O-])s3)sc2Oc2cccc(F)c2)cc1` [Compound 5-54, N-(4-(4-ethoxyphenyl)-5-(3-fluorophenoxy)thiazol-2-yl)-5-nitrothiophene-2-carboxamide], with 35%.
As to `CCCCc1ccc(Oc2sc(NC(=O)c3ccc([N+](=O)[O-])s3)nc2-c2ccc(C(C)(C)C)cc2)cc1` [Compound 5-89, N-(4-(4-(tert-butyl)phenyl)-5-(4-butylphenoxy)thiazol-2-yl)-5-nitrothiophene-2-carboxamide], the viability at 10 µM is 36%.
On the same count and under the same terms, under `CCCCc1ccc(-c2nc(NC(=O)c3ccc([N+](=O)[O-])s3)sc2Oc2ccccc2)cc1` [Compound 5-79, N-(4-(4-butylphenyl)-5-phenoxythiazol-2-yl)-5-nitrothiophene-2-carboxamide] stands 31%; under `CC(C)(C)c1ccc(Oc2sc(NC(=O)c3ccc([N+](=O)[O-])s3)nc2-c2ccc(C(C)(C)C)cc2)cc1` [Compound 5-96, N-(5-(4-(tert-butyl)phenoxy)-4-(4-(tert-butyl)phenyl)thiazol-2-yl)-5-nitrothiophene-2-carboxamide], 47%.
For the molecule `COc1ccc(-c2nc(NC(=O)c3ccc([N+](=O)[O-])s3)sc2Oc2ccccc2)cc1` [Compound 5-34, N-(4-(4-methoxyphenyl)-5-phenoxythiazol-2-yl)-5-nitrothiophene-2-carboxamide], the viability at 10 µM came to 54%.
On the same count and under the same terms, under `O=C(Nc1nc(-c2ccc(Br)cc2)c(Oc2ccccc2)s1)c1ccc([N+](=O)[O-])s1` [Compound 5-1, N-(4-(4-bromophenyl)-5-phenoxythiazol-2-yl)-5-nitrothiophene-2-carboxamide] stands 66%.
Same read-out and setting: under `CCCOc1ccc(-c2nc(NC(=O)c3ccc([N+](=O)[O-])s3)sc2Oc2ccccc2OCC)cc1` [Compound 5-21, N-(5-(2-ethoxyphenoxy)-4-(4-propoxyphenyl)thiazol-2-yl)-5-nitrothiophene-2-carboxamide] stands 28%; under `O=C(Nc1nc(-c2ccc(OC(F)(F)F)cc2)c(Oc2ccccc2)s1)c1ccc([N+](=O)[O-])s1` [Compound 5-84, 5-nitro-N-(5-phenoxy-4-(4-(trifluoromethoxy)phenyl)thiazol-2-yl)thiophene-2-carboxamide], 34%.
`O=C(Nc1nc(-c2ccc(F)cc2)c(Oc2ccccc2C(F)(F)F)s1)c1ccc([N+](=O)[O-])s1` [Compound 5-31, N-(4-(4-fluorophenyl)-5-(2-(trifluoromethyl)phenoxy)thiazol-2-yl)-5-nitrothiophene-2-carboxamide]: the viability at 10 µM amounted to 48%.
With `CCCOc1ccc(-c2nc(NC(=O)c3ccc([N+](=O)[O-])s3)sc2Oc2cccc3cccnc23)cc1` [Compound 5-52, 5-nitro-N-(4-(4-propoxyphenyl)-5-(quinolin-8-yloxy)thiazol-2-yl)thiophene-2-carboxamide], the viability at 10 µM was found to be 41%.

Staying with this assay, now noted: Homo sapiens, Table 6, ratio of number of tumor cells treated with 10 μM compound to non-treated cells.
Regarding `O=C(Nc1nc(-c2ccc(Br)cc2)c(Br)s1)c1ccc([N+](=O)[O-])s1` [Compound 6-10, N-(5-bromo-4-(4-bromophenyl)thiazol-2-yl)-5-nitrothiophene-2-carboxamide], the viability at 10 µM is 50%.
On the same count and under the same terms, under `CCOC(=O)c1sc(NC(=O)c2ccc([N+](=O)[O-])s2)nc1-c1ccc(C(C)(C)C)cc1` [Compound 6-42, ethyl 4-(4-(tert-butyl)phenyl)-2-(5-nitrothiophene-2-carboxamido)thiazole-5-carboxylate] stands 49%.
Consider `CCOc1ccc(-c2nc(NC(=O)c3ccc([N+](=O)[O-])s3)sc2-c2ccc(C(F)(F)F)cc2)cc1` [Compound 6-19, N-(4-(4-ethoxyphenyl)-5-(4-(trifluoromethyl)phenyl)thiazol-2-yl)-5-nitrothiophene-2-carboxamide], for which the viability at 10 µM came out at 26%.
Still for that read-out and setting: then `CC(C)(C)c1ccc(-c2nc(NC(=O)c3ccc([N+](=O)[O-])s3)sc2C(=O)NC2CC2)cc1` [Compound 6-44, 4-(4-(tert-butyl)phenyl)-N-cyclopropyl-2-(5-nitrothiophene-2-carboxamido)thiazole-5-carboxamide], with 81%.

The values are drawn from US11174253B2, “Compound and pharmaceutical composition containing the same” (ALPHALA CO., LTD., priority 2017, dated 2021).
